Experimental data: publication PMC9994102, “A fluorescent photoaffinity probe for formyl peptide receptor 1 labelling in living cells†” (RSC Chemical Biology, 2023)
Square brackets hold non-standard residues; d marks the D form. * marks the point of attachment. FITC = O=C1OC2(c3ccc(O)cc3Oc3cc(O)ccc32)c2ccc(NC(=S)*)cc21; Abu(3-Me-diazirin-3-yl) = CC1(CC[C@H](N)C(=O)O)N=N1; Nle = CCCC[C@H](N)C(=O)O; For = O=C*

How the values were obtained:
[1] = test system: FPR1 (crude membrane fraction of transfected HEK293T cells); test: gel-based competition of probe-TAMRA labelling in membrane fraction; type: binding; details: 50 nM probe-TAMRA, 30 min on ice, 2% DMSO, 365 nm 30 s, PNGaseF
Protocol: (a) UV-dependent crosslinking analysed by gel and western blot. […] Following cell lysis, samples were separated by SDS-PAGE and analysed by in-gel fluorescence (550 nm emission) and anti-FLAG western blot. Ponceau staining was used to assess protein loading. […] Probes were used at a concentration of 10 nM. Samples were washed twice before analysis and 10,000 cells were measured per sample. […] HEK293T cells transfected with FPR1 or mock transfected were suspended, lysed by sonication and membrane fraction isolated by centrifugation. […] Proteins were deglycosylated with PNGaseF, separated by SDS-PAGE and analysed by in-gel fluorescence (550nm emission). The gel was Coomassie stained to provide evidence of equal protein loading.
(§1) Cells were incubated in a humidified atmosphere at 37 °C containing 5% CO2. HEK293T cells were cultured in Dulbecco’s Modified Eagle Medium (DMEM, Fisher) supplemented with 1% L-glutamine, 10% v/v fetal bovine serum (FBS) and 1% v/v Pen-Strep. Cells were detached using 1  trypsin in PBS.
HEK293T cells were seeded in a 6-well plate (2 × 10^5 cells/well) and incubated at 37 °C overnight. The plasmid containing FPR1 gene (0.7 µg/µL stock) and Turbofect (Fisher) were mixed with DMEM (no FBS) and incubated at room temperature for 15 min (1 µg of plasmid and 3 µL of Turbofect in 100 µL of media per well). The solution was added to the plated cells and incubated at 37 °C overnight. For mock transfection, the plasmid was omitted.
For 10 cm plate transfection for lysate preparation, the following modifications were used: 1.6×10^6 cells were seeded per plate; 8 µg plasmid and 24 µL Turbofect were mixed in 800 µL DMEM.
Transfected cells were washed with PBS and incubated in 1 mL of PBS with EDTA (per well) at 37 °C for 3 min to detach. The cells were then transferred into sterile Eppendorf tubes and centrifuged at 2000 rpm for 3 min at 4 °C to form pellets. Subsequently the cells were incubated with 1 mL of 10 nM probe in PBS at 0 °C for 30 min. […] Protein concentration was determined by the DC protein assay (Bio-Rad) using BSA to generate a standard curve. […]

[2] = test system: FPR1 (FPR1-HEK293T cells); test: flow cytometry competition of probe-TAMRA with known ligands; type: binding; details: probe-TAMRA 10 nM
Protocol: as §1
HEK293T cells were seeded in a 6-well plate (2 × 10^5 cells/well) and incubated at 37 °C overnight. The plasmid containing FPR1 gene (0.7 µg/µL stock) and Turbofect (Fisher) were mixed with DMEM (no FBS) and incubated at room temperature for 15 min (1 µg of plasmid and 3 µL of Turbofect in 100 µL of media per well). The solution was added to the plated cells and incubated at 37 °C overnight. For mock transfection, the plasmid was omitted. […]
concentrations of 5 µM, 20 µM, 5 µM respectively) or DMSO for 30 min on ice (final DMSO concentration of 2%). […] Membranes were resuspended in 25 µL PBS, irradiated for 30 s at 365 nm, deglycosylated as described in section 2.6, and then analysed by SDS-PAGE.
Crosslinked cell lysate samples were analysed using gel-based fluorescent imaging. […] Fluorescence was measured using a BioRad ChemiDoc MP Imaging System with a Cy3 filter. […]

FPR1 [3] = molecular target: FPR1; set-up: method as in 4 sources, ref [17] = [17]; PMID 18312550; doi:10.1111/j.1747-0285.2008.00646.x; Wittelsberger A. Mierke D. F. Rosenblatt M. Mapping ligand-receptor interfaces: approaching the resolution limit of benzophenone-based photoaffinity scanning Chem. Biol. Drug Des. 2008 71 4 380 383 10 ||| ref [20] = [20]; PMID 472759; doi:10.1126/science.472759; Niedel J. E. Kahane I. Receptor-Mediated Internalisation of Fluorescent Chemotactic Peptide by Human Neutrophils Science 1979 205 1412 1414 10.1126/science.472759 472759 ||| ref [21] = [21]; PMID 15209517; doi:10.1021/bi035335i; Waller A. Sutton K. L. Kinzer-Ursem T. L. Absood A. Traynor J. R. Linderman J. J. Omann G. M. Receptor binding kinetics and cellular responses of six N-formyl peptide agonists in human neutrophils Bio ||| ref [30] = [30]; PMID 19006074; doi:10.1002/cyto.a.20670; Strouse J. J. Young S. M. Mitchell H. D. Ye R. D. Prossnitz E. R. Sklar L. A. Edwards B. S. A novel fluorescent cross-reactive formylpeptide receptor/formylpeptide receptor-like 1 hexapeptide ligand C; details: cited from earlier work; for binding to FPR1: ref [20]
[4] = molecular target: T1, FPR1 (FLAG-tagged, transiently transfected HEK293T cells) (Homo sapiens, UniProt P21462); test: flow cytometry binding to FPR1-transfected HEK293T cells; details: 10 nM; 10 000 cells per sample
T1 construct: host or cells: HEK293T, transient transfection with Turbofect
T1 sequence (P21462 1-350): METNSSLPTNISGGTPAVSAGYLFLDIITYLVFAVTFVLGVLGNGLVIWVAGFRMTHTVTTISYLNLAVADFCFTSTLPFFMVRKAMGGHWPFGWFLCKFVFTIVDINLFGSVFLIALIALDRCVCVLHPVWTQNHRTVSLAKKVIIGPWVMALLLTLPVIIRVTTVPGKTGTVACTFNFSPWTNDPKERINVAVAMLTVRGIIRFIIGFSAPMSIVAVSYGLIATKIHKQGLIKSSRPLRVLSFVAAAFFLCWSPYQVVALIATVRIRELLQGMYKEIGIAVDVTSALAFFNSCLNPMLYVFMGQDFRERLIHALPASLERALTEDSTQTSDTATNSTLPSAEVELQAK
Protocol: Fig. 2 Evaluation of probe-TAMRA as a ligand for FPR1 by flow cytometry. Histograms of FPR1-transfected (+FPR1) or mock-transfected (mock) HEK293T cells incubated with Tracer-FITC (a) or probe-TAMRA (b) each at 10 nM at the indicated wavelengths. 10 000 cells measured per sample. (c) Plot of mean fluorescence intensity determined from flow cytometry analysis following incubation with increasing concentrations of probe-TAMRA with transfected (blue) or mock transfected (grey) cells. Data from 3 biological replicates; error bars represent standard error of the mean. Black curve is subtraction of background binding (grey curve) from blue curve and represents specific binding. (d) Dot plot from incubation of transfected cells with Tracer-FITC alone (cyan), probe-TAMRA alone (blue), or co-incubation of probe and tracer (red). All peptides at 10 nM. (e) Plot of percentage maximum fluorescence at 525 nm (FITC) and 585 nm (TAMRA) wavelengths from a flow cytometry competition experiment in which Tracer-FITC was held constant at a concentration of 10 nM and the concentration of probe-TAMRA increased from 0–200 nM. […]
Transfected cells were washed with PBS and incubated in 1 mL of PBS with EDTA (per well) at 37 °C for 3 min to detach. […] Protein concentration was determined by the DC protein assay (Bio-Rad) using BSA to generate a standard curve. […]

FPR1 [5] = details: ref [20]; cited from earlier work
Protocol: Upon agonist binding, FPR1 internalises following activation of G protein subunits, resulting in receptor desensitisation.[20] […] Upon heating to 37 °C, fluorescent material was ob ...

[6] = molecular target: T2, Formyl peptide receptor 1, C-terminally FLAG-tagged (UniProt P21462 1-350); test: flow cytometry on cells; FPR1-transfected or mock-transfected HEK293T cells incubated with the fluorescent peptide (10 nM; probe-TAMRA titrated 0-200 nM); background of mock-transfected cells subtracted; 3 biological replicates; details: one partner purified
T2 construct: Formyl peptide receptor 1 (FPR1); Glycosylated in HEK293T (diffuse band that sharpens with PNGaseF); also called FPR1; FLAG-tagged FPR1; source: HEK293T, transiently transfected; on living cells, in lysate (sonication) or in a crude membrane fraction; not shown: FLAG, C-terminal, kept
T2 sequence (looked up): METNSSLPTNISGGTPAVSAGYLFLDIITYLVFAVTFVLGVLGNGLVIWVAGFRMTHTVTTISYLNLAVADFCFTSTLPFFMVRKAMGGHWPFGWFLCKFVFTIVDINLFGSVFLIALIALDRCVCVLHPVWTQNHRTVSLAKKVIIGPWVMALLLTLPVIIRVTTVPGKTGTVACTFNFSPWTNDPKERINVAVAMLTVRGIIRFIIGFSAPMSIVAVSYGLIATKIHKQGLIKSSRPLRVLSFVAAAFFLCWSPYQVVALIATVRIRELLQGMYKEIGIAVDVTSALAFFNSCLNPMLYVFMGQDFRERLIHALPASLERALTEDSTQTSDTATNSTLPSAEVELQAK

Boc-MLF
inhibition of probe-TAMRA labelling ([1]; 20 μM competitor): incomplete inhibition | concentration at which competition of probe-TAMRA binding observed [2]: 10 to 50 µM

For-[Nle]LF[Nle]YK(FITC)-OH [Tracer-FITC]
Kd (FPR1 [3]; ref [17], read-out: reported KD): ~3 nM | binding to FPR1 (FPR1 [3]): low nM binding to FPR1 | fluorescence shift in flow cytometry [4]: clear shift to a population of fluorescent cells with minimal background binding in mock-transfected cells

fMLF
KD of tripeptide (reported, words) (FPR1 [3]; ref [21]): nM range | inhibition of probe-TAMRA labelling ([1]; 5 μM competitor): incomplete inhibition | concentration at which competition of probe-TAMRA binding observed [2]: greater than 5 μM

fMLFF
potency as reported (FPR1 [3]; ref [30]): more potent | inhibition of probe-TAMRA labelling ([1]; 5 μM competitor): complete inhibition

formyl-Nle-Leu-Phe-Nle-Tyr-Lys(TAMRA)-OH [TAMRA version of the tracer]
internalisation (literature) (FPR1 [5]): receptor internalisation | binding to FPR1 (FPR1 [3]): low nM binding to FPR1

For-[Abu(3-Me-diazirin-3-yl)]LF[Nle]YK(5(6)‑TAMRA)-OH [probe-TAMRA]
Kd [6]: 3.5 ± 0.9 nM
